Experimental data published in publication PMC8330742, “New benzothieno[2,3-c]pyridines as non-steroidal CYP17 inhibitors: design, synthesis, anticancer screening, apoptosis induction, and in silico ADME profile studies” (Journal of Enzyme Inhibition and Medicinal Chemistry, 2021).

How the values were obtained:
CYP17 = conditions: Figure 1, known CYP17 inhibitors; cited from earlier work
EKVX = assay: NCI-60 SRB screen; type: cell-based, human; conditions: single dose 10^−5 M
NCI-H226 = assay: NCI-60 SRB screen; type: cell-based, human; conditions: NCI-H226; single dose 10^−5 M
UO-31 = assay: NCI-60 SRB screen; type: cell-based, human; conditions: UO-31; single dose 10^−5 M
IGROV1 = assay: NCI-60 SRB screen; type: cell-based, human; conditions: IGROV1; single dose 10^−5 M
ACHN = assay: NCI-60 SRB screen; type: cell-based; conditions: single dose 10^−5 M
TK-10 = assay: NCI-60 SRB screen; type: cell-based, human; conditions: TK-10; single dose 10^−5 M
UACC-257 = assay: NCI-60 SRB screen; type: cell-based, human; conditions: UACC-275 (so in the source); single dose 10^−5 M
NCI/ADR-RES = assay: NCI-60 SRB screen; type: cell-based, human; conditions: single dose 10^−5 M
786-0 = assay: NCI-60 SRB screen; type: cell-based; conditions: 786-0; single dose 10^−5 M
CAKI-1 = assay: NCI-60 SRB screen; type: cell-based, human; conditions: CAKI-1; single dose 10^−5 M
SK-OV-3 = assay: NCI-60 SRB screen; type: cell-based, human; conditions: SK-OV-3; single dose 10^−5 M
SNB-75 = assay: NCI-60 SRB screen; type: cell-based, human; conditions: SNB-75; single dose 10^−5 M
OVCAR-3 = assay: NCI-60 SRB screen; type: cell-based, human; conditions: OVCAR-3; single dose 10^−5 M
RXF 393 = assay: NCI-60 SRB screen; type: cell-based, human; conditions: RXF 393; single dose 10^−5 M
NCI-H322M = assay: NCI-60 SRB screen; type: cell-based, human; conditions: single dose 10^−5 M
OVCAR-5 = assay: NCI-60 SRB screen; type: cell-based, human; conditions: OVCAR-5; single dose 10^−5 M
M14 = assay: NCI-60 SRB screen; type: cell-based, human; conditions: M14; single dose 10^−5 M
SF-539 = assay: NCI-60 SRB screen; type: cell-based, human; conditions: SF-539; single dose 10^−5 M
SR = assay: NCI-60 SRB screen; type: cell-based; conditions: single dose 10^−5 M
COLO 205 = assay: NCI-60 SRB screen; type: cell-based, human; conditions: COLO 205; single dose 10^−5 M
SW-620 = assay: NCI-60 SRB screen; type: cell-based; conditions: SW-620; single dose 10^−5 M
SNB-19 = assay: NCI-60 SRB screen; type: cell-based; conditions: SNB-19; single dose 10^−5 M
OVCAR-4 = assay: NCI-60 SRB screen; type: cell-based, human; conditions: OVCAR-4; single dose 10^−5 M
HCC-2998 = assay: NCI-60 SRB screen; type: cell-based, human; conditions: HCC-2998; single dose 10^−5 M
KM12 = assay: NCI-60 SRB screen; type: cell-based, human; conditions: KM12; single dose 10^−5 M
HT-29 = assay: NCI-60 SRB screen; type: cell-based; conditions: HT-29; single dose 10^−5 M
SF-295 = assay: NCI-60 SRB screen; type: cell-based, human; conditions: SF-295; single dose 10^−5 M
CCRF-CEM = assay: NCI-60 SRB screen; type: cell-based; conditions: single dose 10^−5 M
MDA-MB-435 = assay: NCI-60 SRB screen; type: cell-based; conditions: MDA-MB435; single dose 10^−5 M
LOX IMVI = assay: NCI-60 SRB screen; type: cell-based, human; conditions: single dose 10^−5 M
SK-MEL-5 = assay: NCI-60 SRB screen; type: cell-based, human; conditions: SK-MEL-5; single dose 10^−5 M
K-562 = assay: NCI-60 SRB screen; type: cell-based, human; conditions: K-562; single dose 10^−5 M
SN12C = assay: NCI-60 SRB screen; type: cell-based, human; conditions: SN 12 C; single dose 10^−5 M
[1] = tested on: panel of 60 cancer cell lines; assay: NCI-60 SRB screen, mean or range over the panel; type: cell-based, human; conditions: mean over the cell lines; single dose 10^−5 M
SK-MEL-2 = assay: NCI-60 SRB screen; type: cell-based, human; conditions: SK-MEL-2; single dose 10^−5 M
A549/ATCC = assay: NCI-60 SRB screen; type: cell-based, human; conditions: single dose 10^−5 M
U251 = assay: NCI-60 SRB screen; type: cell-based, human; conditions: U251; single dose 10^−5 M
UACC-62 = assay: NCI-60 SRB screen; type: cell-based, human; conditions: UACC-62; single dose 10^−5 M
HCT-116 = assay: NCI-60 SRB screen; type: cell-based, human; conditions: HCT-116; single dose 10^−5 M
HL-60(TB) = assay: NCI-60 SRB screen; type: cell-based, human; conditions: HL-60 (TB); single dose 10^−5 M
NCI-H522 = assay: NCI-60 SRB screen; type: cell-based, human; conditions: NCI-H522; single dose 10^−5 M
SK-MEL-28 = assay: NCI-60 SRB screen; type: cell-based; conditions: SK-MEL-28; single dose 10^−5 M
NCI-H460 = assay: NCI-60 SRB screen; type: cell-based, human; conditions: NCI-H460; single dose 10^−5 M
SF-268 = assay: NCI-60 SRB screen; type: cell-based, human; conditions: SF-268; single dose 10^−5 M
NCI-H23 = assay: NCI-60 SRB screen; type: cell-based, human; conditions: NCI-H23; single dose 10^−5 M
HOP-62 = assay: NCI-60 SRB screen; type: cell-based, human; conditions: HOP-62; single dose 10^−5 M
RPMI-8226 = assay: NCI-60 SRB screen; type: cell-based; conditions: RPMI-8226; single dose 10^−5 M
A498 = assay: NCI-60 SRB screen; type: cell-based, human; conditions: A498; single dose 10^−5 M
HOP-92 = assay: NCI-60 SRB screen; type: cell-based, human; conditions: HOP-92; single dose 10^−5 M
OVCAR-8 = assay: NCI-60 SRB screen; type: cell-based, human; conditions: OVCAR-8; single dose 10^−5 M
MOLT-4 = assay: NCI-60 SRB screen; type: cell-based; conditions: MOLT-4; single dose 10^−5 M
HCT-15 = assay: NCI-60 SRB screen; type: cell-based, human; conditions: HCT-15; single dose 10^−5 M
MALME-3M = assay: NCI-60 SRB screen; type: cell-based, human; conditions: single dose 10^−5 M

CNC(=O)c1ccc(N2C(=S)N(c3cnc(C#N)c(C(F)(F)F)c3)C(=O)C23CCC3)cc1F [Apalutamide, apalutamide]
IC50 (CYP17): 15 nM

Cc1ccncc1N1CCN(c2ccnc(Cl)c2)C1=O [CFG920]
IC50 (CYP17): 23 nM

O=C1C(=Cc2cccc([N+](=O)[O-])c2)Sc2c(F)cccc21 [Compound 2d, 7-Fluoro-2-(3-nitrobenzylidene)[1]benzothiophen-3(2H)-one]
melting point: 200 to 202 °C

O=C1Cc2c(sc3c(F)cccc23)C(c2cccc([N+](=O)[O-])c2)N1 (stereo not drawn) [Compound 3d]
Growth inhibition (%) (EKVX): 7.98% | Growth inhibition (%) (NCI-H226): 21.32% | Growth inhibition (%) (UO-31): 34.84% | Growth inhibition (%) (IGROV1): 20.45% | Growth inhibition (%) (ACHN): 6.70% | Growth inhibition (%) (TK-10): −52.28% | Growth inhibition (%) (UACC-257): −7.53% | Growth inhibition (%) (NCI/ADR-RES): 4.50% | Growth inhibition (%) (786-0): −10.00% | Growth inhibition (%) (CAKI-1): 21.82% | Growth inhibition (%) (SK-OV-3): −3.95% | Growth inhibition (%) (SNB-75): 21.53% | Growth inhibition (%) (OVCAR-3): 0.09% | Growth inhibition (%) (RXF 393): −5.23% | Growth inhibition (%) (NCI-H322M): 2.78% | Growth inhibition (%) (OVCAR-5): −8.70% | Growth inhibition (%) (M14): 1.35% | Growth inhibition (%) (SF-539): 6.60% | Growth inhibition (%) (SR): 23.81% | Growth inhibition (%) (COLO 205): −7.27% | Growth inhibition (%) (SW-620): 2.40% | Growth inhibition (%) (SNB-19): 6.23% | Growth inhibition (%) (OVCAR-4): −1.20% | Growth inhibition (%) (HCC-2998): −6.11% | Growth inhibition (%) (KM12): 3.93% | Growth inhibition (%) (HT-29): 0.03% | Growth inhibition (%) (SF-295): 2.30% | Growth inhibition (%) (CCRF-CEM): 0.90% | Growth inhibition (%) (MDA-MB-435): −3.38% | Growth inhibition (%) (LOX IMVI): 12.77% | Growth inhibition (%) (SK-MEL-5): 5.55% | Growth inhibition (%) (K-562): 15.78% | Growth inhibition (%) (SN12C): 4.04% | Mean growth inhibition (%) [1]: 6.24% | Growth inhibition (%) (SK-MEL-2): −1.12% | Growth inhibition (%) (A549/ATCC): −5.27% | Growth inhibition (%) (U251): 20.57% | Growth inhibition (%) (UACC-62): 14.07% | Growth inhibition (%) (HCT-116): 23.07% | Growth inhibition (%) (HL-60(TB)): 12.00% | Growth inhibition (%) (NCI-H522): 17.55% | Growth inhibition (%) (SK-MEL-28): −9.19% | Growth inhibition (%) (NCI-H460): 0.53% | Growth inhibition (%) (SF-268): 14.60% | Growth inhibition (%) (NCI-H23): 1.04% | Growth inhibition (%) (HOP-62): 14.32% | Growth inhibition (%) (RPMI-8226): 29.04% | Growth inhibition (%) (A498): 4.88% | Growth inhibition (%) (HOP-92): 10.96% | Growth inhibition (%) (OVCAR-8): 2.86% | Growth inhibition (%) (MOLT-4): 2.90% | Growth inhibition (%) (HCT-15): 21.33% | Growth inhibition (%) (MALME-3M): −6.36%

C[C@]12CC[C@H](O)CC1=CC[C@@H]1[C@@H]2CC[C@]2(C)C(n3cnc4ccccc43)=CC[C@@H]12 [Galeterone]
IC50 (CYP17): 300 nM

Oc1ccc2sc3c(c2c1)CCN(Cc1cccnc1)C3 [VIc]
IC50 (CYP17): 20.9 nM

N#Cc1ccc2sc3c(c2c1)CCN(Cc1cccnc1)C3 [VId]
IC50 (CYP17): 257 nM

c1ccc2c(c1)[nH]c1cc(Cc3cnc[nH]3)ccc12 [YM-116]
IC50 (CYP17): 228 nM
